# Data as given in patent US20250213512A1, “TRANSDERMAL ANALGESIC FORMULATION” (MEAT & LIVESTOCK AUSTRALIA LTD, priority 2017, published 2025).
# Several values for one entry are separate records, joined by “and”; a condition that tells them apart may be missing. Equal values may be shown once.
# Assays:
# [1] = Optimising the candidate formulations: excipient effects on ketoprofen movement through cattle skin in vitro
# [2] = Clinical study (disbudding): behaviour ethogram, mixed effect Poisson / negative binomial models; conditions: dehorned calves
# Protocol: Calf behaviour was monitored before and after dehoming in suitable time periods. The day before dehoming, the behaviour of all 36 calves were monitored for two hours to record the baseline variation, which was taken as 0 hour observation. Next day after dehoming, behaviour was recorded at 2-4 hour, 4-8 hour, 8-12 hour, 24 hour and 48 hours. There were 12 behaviour parameters recorded, as follows: Head shaking, Ear flicking, Tail wagging. Head rubbing, lying, ruminating, neck extending, grooming, walking, vocalising, feeding and drinking.
# The method used to identify those variables was Confirmatory Factor Analysis (CFA) within Structural Equation Modelling Framework (SEM).
# Separate models were used for each of the observed animal behavioural traits (FIG. 19). A mixed effect Poisson model with an animal fitted as random intercepts and time as random slope, and unstructured error term for the residuals. Behaviours trait at baseline (time 0) was centred and added to the fixed effect part of the model (essentially turning the model into a random slope model too). […] Overdispersed models (also those with excess zeros) were refitted using a negative binomial model.
# Experimental time was fitted as a categorical variable to derive estimated at each time point, time 2 hr was used as the reference category. Treatment was also fitted as categorical variable, placebo as reference category. […]
# [3] = treated vs untreated cattle
# Protocol: Blood samples were analysed for cortisol and biomarkers once the study was completed.
# A preliminary analysis of the proteins identified was undertaken using Principal Component Analysis (PCA) within the MarkerView software package (FIG. 21). This analysis looked at a comparison of groups for all time points (FIG. 21a), a comparison of dehorning vs. sham (FIG. 21b) and a comparison of treatment vs. placebo (FIG. 21c).
# [4] = Solubility / precipitation of NSAIDs in the vehicles tested; conditions: vehicles screened
# [5] = Screening of NSAID and vehicle combinations: penetration through cattle skin in vitro (Table 13)
# Protocol: Hair was removed using an electric clipper and the subcutaneous fat and musculature carefully trimmed away before the skin was cut into circular sections (approximately 2 cm diameter) using a metal wad punch, and placed in airtight ziplock bags, stored at −20° C. within 5 hr of slaughter.
# The skin samples were defrosted immediately prior to use and mounted on Franz diffusion cells. […] A glass cover slip was applied to each donor chamber to prevent evaporation of the donor solution. Samples (200 μL) were collected at regular intervals from the receptor chambers via the sampling port and immediately replenished with equal volumes of fresh receptor solution. At the completion of each study, the diffusions cells were dismantled and the skin discs were rinsed and stored.
# [6] = 10% Tolfenamic acid, vehicle KET67 (Eucalyptus oil, 70% 1,8-cineole), sample time 4 hrs
# [7] = 10% Tolfenamic acid, vehicle KET67 (Eucalyptus oil, 70% 1,8-cineole), sample time 6 hrs
# [8] = 10% Tolfenamic acid, vehicle KET67 (Eucalyptus oil, 70% 1,8-cineole), sample time 8 hrs
# [9] = 10% Tolfenamic acid, vehicle KET68 (propylene glycol, 100% PPG), sample time 4 hrs
# [10] = Tolfenamic acid 10% in vehicle KET51: Ethanol 70% EthOH, Propylene glycol 30% PPG, terpene None, 0.1M citrate, sample time 6 hrs
# [11] = Tolfenamic acid 10% in vehicle KET51: Ethanol 70% EthOH, Propylene glycol 30% PPG, terpene None, 0.1M citrate, sample time 8 hrs
# [12] = Tolfenamic acid 10% in vehicle KET52: Ethanol 70% EthOH, Propylene glycol 30% PPG, Menthol 50 mg/mL, 0.1M citrate, sample time 0.5 hrs
# [13] = Tolfenamic acid 10% in vehicle KET52: Ethanol 70% EthOH, Propylene glycol 30% PPG, Menthol 50 mg/mL, 0.1M citrate, sample time 2 hrs
# [14] = Tolfenamic acid 10% in vehicle KET52: Ethanol 70% EthOH, Propylene glycol 30% PPG, Menthol 50 mg/mL, 0.1M citrate, sample time 4 hrs
# [15] = Tolfenamic acid 10% in vehicle KET52: Ethanol 70% EthOH, Propylene glycol 30% PPG, Menthol 50 mg/mL, 0.1M citrate, sample time 6 hrs
# [16] = Tolfenamic acid 10% in vehicle KET52: Ethanol 70% EthOH, Propylene glycol 30% PPG, Menthol 50 mg/mL, 0.1M citrate, sample time 8 hrs
# [17] = Tolfenamic acid 50%, vehicle KET39: Ethanol 50% EthOH, no co-solvent, Menthol 50 mg/mL, sample time 0.5 hrs, replicates 1-3
# [18] = Tolfenamic acid 50%, vehicle KET39: Ethanol 50% EthOH, no co-solvent, Menthol 50 mg/mL, sample time 2 hrs, replicates 1-3
# [19] = Tolfenamic acid 50%, vehicle KET39: Ethanol 50% EthOH, no co-solvent, Menthol 50 mg/mL, sample time 4 hrs, replicates 1-3
# [20] = Vehicle KET52: 70% EthOH, 30% PPG (propylene glycol), Menthol 50 mg/mL, 0.1M citrate, drug conc 10%, sample time 0.5 hrs
# [21] = Vehicle KET52: 70% EthOH, 30% PPG (propylene glycol), Menthol 50 mg/mL, 0.1M citrate, drug conc 10%, sample time 8 hrs
# [22] = Vehicle KET53: 70% EthOH, 30% OA (oleyl alcohol), no terpene, 0.1M citrate, drug conc 10%, sample time 0.5 hrs
# [23] = Vehicle KET53: 70% EthOH, 30% OA (oleyl alcohol), no terpene, 0.1M citrate, drug conc 10%, sample time 8 hrs
# [24] = Vehicle KET54: 100% SRArl (Superfine Arlasolve), 0.1M citrate, drug conc 10%, sample time 6 hrs
compound,measurement,setting,value
"CCO [Ethanol, ethanol]",effect of excipient on ketoprofen/NSAID penetration through cattle skin,[1],significantly enhanced penetration compared to other alcohols
"CCCCCCCCCCCCCC(=O)OC(C)C [IPM, isopropyl myristate]",effect of excipient on ketoprofen/NSAID penetration through cattle skin,[1],proving the more effective
CC(C)O [isopropanol],effect of excipient on ketoprofen/NSAID penetration through cattle skin,[1],did not perform as well as ethanol
CC(C(=O)O)c1cccc(C(=O)c2ccccc2)c1 (centres unmarked) [ketoprofen],head shaking compared with the placebo group,[2],significantly different from the placebo group
same,effect on key biomarkers of pain and inflammation,[3],significantly affected key biomarkers of pain and inflammation
Cc1c(Cl)cccc1Nc1ccccc1C(=O)O [tolfenamic acid],solubility in vehicles,[4],not particularly soluble in most of the vehicles tested
same,solubility in vehicles,[4]; listed as Tolfenamic acid,poorly soluble in almost every vehicle tested
same,analysis conc,"[5]; 10% Tolfenamic acid, vehicle KET66 (50% Ethanol, Eucalyptus oil 21% 1,8-cineole, 0.1M citrate), sample time 0.5 hrs",0.004
same,analysis conc,"[5]; 10% Tolfenamic acid, vehicle KET67 (Eucalyptus oil, 70% 1,8-cineole), sample time 0.5 hrs",0.005 and 0.003
same,Concentration,[5]; [6],0.03 µg/mL and 0.015 µg/mL
same,analysis conc,[5]; [6],0.01 and 0.005
same,Concentration,[5]; [7],0.018 µg/mL and 0.015 µg/mL and 0.024 µg/mL
same,analysis conc,[5]; [7],0.006 and 0.005 and 0.008
same,Concentration,[5]; [8],0.018 µg/mL and 0.015 µg/mL and 0.012 µg/mL
same,analysis conc,[5]; [8],0.006 and 0.005 and 0.004
same,analysis conc,"[5]; 10% Tolfenamic acid, vehicle KET68 (propylene glycol, 100% PPG), sample time 0.5 hrs",0.002
same,Concentration,[5]; [9],0.021 µg/mL and 0.012 µg/mL
same,analysis conc,[5]; [9],0.007 and 0.004
same,analysis conc,"[5]; 10% Tolfenamic acid, vehicle KET68 (propylene glycol, 100% PPG), sample time 6 hrs",0.002
same,analysis conc,"[5]; Tolfenamic acid 10% in vehicle KET51: Ethanol 70% EthOH, Propylene glycol 30% PPG, terpene None, 0.1M citrate, sample time 2 hrs",0.011 and 0.01
same,analysis conc,"[5]; Tolfenamic acid 10% in vehicle KET51: Ethanol 70% EthOH, Propylene glycol 30% PPG, terpene None, 0.1M citrate, sample time 4 hrs",0.004 and 0.003
same,Concentration,[5]; [10],0.012 µg/mL and 0.015 µg/mL
same,analysis conc,[5]; [10],0.004 and 0.005
same,Concentration,[5]; [11],0.018 µg/mL and 0.015 µg/mL and 0.012 µg/mL
same,analysis conc,[5]; [11],0.006 and 0.005 and 0.004
same,Concentration,[5]; [12],0.009 µg/mL
same,analysis conc,[5]; [12],0.003
same,Concentration,[5]; [13],0.012 µg/mL and 0.006 µg/mL
same,analysis conc,[5]; [13],0.004 and 0.002
same,Concentration,[5]; [14],0.009 µg/mL
same,analysis conc,[5]; [14],0.003
same,Concentration,[5]; [15],0.006 µg/mL
same,analysis conc,[5]; [15],0.002
same,Concentration,[5]; [16],0.012 µg/mL
same,analysis conc,[5]; [16],0.004
same,Concentration,"[5]; Tolfenamic acid 50%, vehicle KET34: Ethanol 70% EthOH, no co-solvent, Menthol 50 mg/mL, sample time 0.5 hrs, replicates 1-3",0 µg/mL
same,Concentration,"[5]; Tolfenamic acid 50%, vehicle KET34: Ethanol 70% EthOH, no co-solvent, Menthol 50 mg/mL, sample time 2 hrs, replicates 1-3",0 µg/mL
same,Concentration,"[5]; Tolfenamic acid 50%, vehicle KET34: Ethanol 70% EthOH, no co-solvent, Menthol 50 mg/mL, sample time 4 hrs, replicates 1-3",0 µg/mL
same,Concentration,"[5]; Tolfenamic acid 50%, vehicle KET34: Ethanol 70% EthOH, no co-solvent, Menthol 50 mg/mL, sample time 6 hrs, replicates 1-3",0 µg/mL
same,Concentration,"[5]; Tolfenamic acid 50%, vehicle KET34: Ethanol 70% EthOH, no co-solvent, Menthol 50 mg/mL, sample time 8 hrs, replicates 1-3",0 µg/mL
same,Concentration,[5]; [17],0 μg/mL (2×) and 0.018 μg/mL
same,analysis conc,[5]; [17],0.006
same,Concentration,[5]; [18],0 μg/mL (2×) and 0.027 μg/mL
same,analysis conc,[5]; [18],0.009
same,Concentration,[5]; [19],0.012 μg/mL and 0 μg/mL (2×)
same,analysis conc,[5]; [19],0.004
same,Concentration,"[5]; Tolfenamic acid 50%, vehicle KET39: Ethanol 50% EthOH, no co-solvent, Menthol 50 mg/mL, sample time 6 hrs, replicates 1-3",0 µg/mL
same,Concentration,"[5]; Tolfenamic acid 50%, vehicle KET39: Ethanol 50% EthOH, no co-solvent, Menthol 50 mg/mL, sample time 8 hrs, replicates 1-3",0 µg/mL
same,Concentration,[5]; [20],0.006 µg/mL
same,analysis conc,[5]; [20],0.002
same,Concentration,"[5]; Vehicle KET52: 70% EthOH, 30% PPG (propylene glycol), Menthol 50 mg/mL, 0.1M citrate, drug conc 10%, sample time 2 hrs",0 µg/mL
same,analysis conc,"[5]; Vehicle KET52: 70% EthOH, 30% PPG (propylene glycol), Menthol 50 mg/mL, 0.1M citrate, drug conc 10%, sample time 4 hrs",0.004
same,analysis conc,"[5]; Vehicle KET52: 70% EthOH, 30% PPG (propylene glycol), Menthol 50 mg/mL, 0.1M citrate, drug conc 10%, sample time 6 hrs",0.003
same,Concentration,[5]; [21],0.021 µg/mL and 0.012 µg/mL
same,analysis conc,[5]; [21],0.007 and 0.004
same,Concentration,[5]; [22],0.006 µg/mL
same,analysis conc,[5]; [22],0.002
same,analysis conc,"[5]; Vehicle KET53: 70% EthOH, 30% OA (oleyl alcohol), no terpene, 0.1M citrate, drug conc 10%, sample time 2 hrs",0.005
same,Concentration,[5]; [23],0.141 µg/mL and 0.24 µg/mL and 0.12 µg/mL
same,analysis conc,[5]; [23],0.047 and 0.08 and 0.04
same,analysis conc,"[5]; Vehicle KET54: 100% SRArl (Superfine Arlasolve), 0.1M citrate, drug conc 10%, sample time 0.5 hrs",0.002
same,Concentration,"[5]; Vehicle KET54: 100% SRArl (Superfine Arlasolve), 0.1M citrate, drug conc 10%, sample time 2 hrs",0 µg/mL
same,Concentration,"[5]; Vehicle KET54: 100% SRArl (Superfine Arlasolve), 0.1M citrate, drug conc 10%, sample time 4 hrs",0 µg/mL
same,Concentration,[5]; [24],0.009 µg/mL and 0.006 µg/mL
same,analysis conc,[5]; [24],0.003 and 0.002 and 0.004
